Measured values from ChEMBL document CHEMBL1828557, “Biophysical and physicochemical methods differentiate highly ligand-efficient human D-amino acid oxidase inhibitors” (Eur J Med Chem, 2011).
≈ marks a conversion by molar mass, not a printed value.

Assays:
D-amino-acid oxidase [1] = biological target: T1, D-amino-acid oxidase (Homo sapiens, UniProt P14920); assay: Inhibition of human recombinant DAAO expressed in Escherichia coli assessed as H2O2 production from D-serine degradation after 30 mins by fluorescence assay
Target sequence in this assay (P14920 whole entry): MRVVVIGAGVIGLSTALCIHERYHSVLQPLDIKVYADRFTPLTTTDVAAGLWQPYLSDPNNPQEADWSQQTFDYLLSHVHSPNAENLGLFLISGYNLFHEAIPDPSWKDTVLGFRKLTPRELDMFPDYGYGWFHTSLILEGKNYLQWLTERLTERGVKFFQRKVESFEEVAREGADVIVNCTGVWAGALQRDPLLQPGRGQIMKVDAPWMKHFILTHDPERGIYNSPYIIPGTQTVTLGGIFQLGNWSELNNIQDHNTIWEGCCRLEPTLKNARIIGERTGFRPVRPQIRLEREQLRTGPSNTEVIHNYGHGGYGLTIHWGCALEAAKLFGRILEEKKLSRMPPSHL

D-amino-acid oxidase [2] = biological target: T1, D-amino-acid oxidase; assay: Inhibition of human DAAO
Target sequence in this assay (P14920 whole entry): as above

D-amino-acid oxidase [3] = biological target: T1, D-amino-acid oxidase; assay: Binding affinity to human recombinant DAAO by isothermal titration calorimeter analysis
Target sequence in this assay (P14920 whole entry): as above

D-amino-acid oxidase [4] = biological target: T1, D-amino-acid oxidase; assay: Binding affinity to human recombinant DAAO by kinetic study scintillation proximity assay
Target sequence in this assay (P14920 whole entry): as above

D-amino-acid oxidase [5] = biological target: T1, D-amino-acid oxidase; assay: Binding affinity to human recombinant DAAO by steady state study scintillation proximity assay
Target sequence in this assay (P14920 whole entry): as above

D-aspartate oxidase = biological target: T2, D-aspartate oxidase (Bos taurus, UniProt P31228); assay: Inhibition of bovine recombinant DASPO expressed in Escherichia coli preincubated for 15 mins by fluorescence assay
T2 sequence (P31228 whole entry): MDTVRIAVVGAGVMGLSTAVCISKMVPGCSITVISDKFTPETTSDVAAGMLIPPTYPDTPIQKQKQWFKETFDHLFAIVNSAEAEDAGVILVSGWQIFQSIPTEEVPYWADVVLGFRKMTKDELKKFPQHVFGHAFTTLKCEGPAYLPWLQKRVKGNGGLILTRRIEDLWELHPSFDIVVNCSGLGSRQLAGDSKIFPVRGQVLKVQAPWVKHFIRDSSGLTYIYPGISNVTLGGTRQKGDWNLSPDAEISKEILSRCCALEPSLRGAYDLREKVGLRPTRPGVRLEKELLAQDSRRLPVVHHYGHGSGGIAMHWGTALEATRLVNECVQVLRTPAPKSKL

[6] = Dissociation constant, pKa of the compound by dip probe absorption spectroscopy technique; format: physicochemical
[7] = Octanol-water partition coefficient, log P of the neutral compound by pH-metric method; format: physicochemical
[8] = Thermodynamic solubility of the compound in phosphate buffer at pH 7.4 after 24 hrs by HPLC analysis; format: physicochemical; conditions: read-out: Therm_solubility
[9] = Kinetic solubility of the compound in 0.01 M phosphate buffered saline at pH 7.4 assessed as minimum solubility after 2 hrs; format: physicochemical; conditions: read-out: Kinetic_solubility
[10] = Kinetic solubility of the compound in 0.01 M phosphate buffered saline at pH 7.4 assessed as maximum solubility after 2 hrs; format: physicochemical; conditions: read-out: Kinetic_solubility
[11] = Apparent permeability across apical to basolateral side in human Caco2 cells by LC-MS/MS analysis; format: ADME, cell-based; conditions: Caco-2
[12] = Apparent permeability from apical to basolateral side of MDCK cells expressing MDR1 by LC-MS/MS analysis; format: ADME, cell-based, Canis lupus familiaris; conditions: dog
[13] = Cmax in Wistar rat brain at 10 mg/kg, po; format: ADME, organism-based; design: dose 10 mg/kg, route oral
[14] = Cmax in Swiss mouse brain at 10 mg/kg, po; format: ADME, organism-based; design: dose 10 mg/kg, route oral
Brain [15] = assay: AUC (0 to last) in Wistar rat brain at 10 mg/kg, po; format: ADME, organism-based; design: dose 10 mg/kg, route oral, time 0 - last; conditions: in vivo
Brain [16] = assay: AUC (0 to last) in Swiss mouse brain at 10 mg/kg, po; format: ADME, organism-based; design: time 0 - last, dose 10 mg/kg, route oral; conditions: in vivo
[17] = Ratio of drug level (0 to last) in brain to plasma in Wistar rat at 10 mg/kg, po; format: ADME, organism-based; design: dose 10 mg/kg, route oral; conditions: brain and plasma, read-out: BPR
[18] = Ratio of drug level (0 to last) in brain to plasma in Swiss mouse at 10 mg/kg, po; format: ADME, organism-based; design: dose 10 mg/kg, route oral; conditions: brain and plasma, read-out: BPR
[19] = Oral bioavailability (0 to last) in Wistar rat plasma at 10 mg/kg; format: ADME, organism-based
[20] = Oral bioavailability (0 to last) in Swiss mouse plasma at 10 mg/kg; format: ADME, organism-based
[21] = Tmax in Wistar rat brain at 10 mg/kg, po; format: ADME, organism-based; design: dose 10 mg/kg, route oral
[22] = Tmax in Swiss mouse brain at 10 mg/kg, po; format: ADME, organism-based; design: dose 10 mg/kg, route oral
[23] = Terminal half life in Wistar rat brain at 10 mg/kg, po; format: ADME, organism-based; design: dose 10 mg/kg, route oral; conditions: read-out: beta t1/2 (converted)
[24] = Terminal half life in Swiss mouse brain at 10 mg/kg, po; format: ADME, organism-based; design: dose 10 mg/kg, route oral; conditions: read-out: beta t1/2 (converted)
[25] = Volume of distribution in Wistar rat plasma at 1 mg/kg, iv; format: ADME, organism-based; design: dose 1 mg/kg, route intravenous
[26] = Volume of distribution in Swiss mouse plasma at 1 mg/kg, iv; format: ADME, organism-based; design: dose 1 mg/kg, route intravenous
[27] = Plasma clearance in Wistar rat plasma at 1 mg/kg, iv; format: ADME, organism-based; design: dose 1 mg/kg, route intravenous
[28] = Plasma clearance in Swiss mouse plasma at 1 mg/kg, iv; format: ADME, organism-based; design: dose 1 mg/kg, route intravenous
D-amino-acid oxidase [29] = biological target: T1, D-amino-acid oxidase
Target sequence in this assay (P14920 whole entry, looked up): as the sequence (P14920 whole entry) above

[30] = Intrinsic clearance in human liver microsomes; format: ADME, Microsome
[31] = biological target: Voltage-gated inwardly rectifying potassium channel KCNH2 (Homo sapiens, UniProt Q12809); assay: Inhibition of human ERG expressed in HEK293 cells by whole cell voltage patch clamp technique; format: cell-based
Chain of Voltage-gated inwardly rectifying potassium channel KCNH2 (Q12809 whole entry): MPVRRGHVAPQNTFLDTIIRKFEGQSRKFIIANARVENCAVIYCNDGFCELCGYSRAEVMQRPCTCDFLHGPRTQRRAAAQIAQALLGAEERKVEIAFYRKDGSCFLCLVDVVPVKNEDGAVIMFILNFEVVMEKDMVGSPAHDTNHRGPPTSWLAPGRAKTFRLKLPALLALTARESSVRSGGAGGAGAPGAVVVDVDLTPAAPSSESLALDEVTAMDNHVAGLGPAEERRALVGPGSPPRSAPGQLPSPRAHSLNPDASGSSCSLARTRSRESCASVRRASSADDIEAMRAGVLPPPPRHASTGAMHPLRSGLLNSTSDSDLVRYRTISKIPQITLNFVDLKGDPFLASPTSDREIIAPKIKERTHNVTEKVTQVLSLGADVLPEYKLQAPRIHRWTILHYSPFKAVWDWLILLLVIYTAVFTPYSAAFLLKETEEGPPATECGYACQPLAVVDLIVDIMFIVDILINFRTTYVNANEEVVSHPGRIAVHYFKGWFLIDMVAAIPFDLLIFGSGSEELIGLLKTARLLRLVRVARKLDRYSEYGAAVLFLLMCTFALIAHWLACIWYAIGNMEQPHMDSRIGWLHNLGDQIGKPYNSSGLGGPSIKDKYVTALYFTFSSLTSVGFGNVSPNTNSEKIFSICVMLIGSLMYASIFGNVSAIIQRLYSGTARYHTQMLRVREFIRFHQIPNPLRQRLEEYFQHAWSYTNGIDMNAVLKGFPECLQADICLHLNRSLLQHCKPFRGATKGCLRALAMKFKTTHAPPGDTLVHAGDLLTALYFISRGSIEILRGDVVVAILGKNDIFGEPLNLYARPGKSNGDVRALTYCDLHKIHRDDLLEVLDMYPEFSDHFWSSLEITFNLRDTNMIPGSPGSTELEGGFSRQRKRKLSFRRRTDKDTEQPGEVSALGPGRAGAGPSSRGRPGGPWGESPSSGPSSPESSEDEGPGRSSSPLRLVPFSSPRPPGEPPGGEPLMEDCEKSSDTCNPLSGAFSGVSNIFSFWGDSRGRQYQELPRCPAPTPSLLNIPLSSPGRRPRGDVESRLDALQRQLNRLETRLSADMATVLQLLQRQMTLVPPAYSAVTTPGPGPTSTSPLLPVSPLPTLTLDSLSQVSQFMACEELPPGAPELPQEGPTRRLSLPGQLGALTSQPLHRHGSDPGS

SMILES | IC50 (D-aspartate oxidase) | pKa [6] | logP [7] | solubility thermodynamic at 24 h [8] | solubility kinetic at 2 h [9] | solubility kinetic at 2 h [10] | Papp A→B [11] | Papp A→B [12] | Cmax [13] | Cmax [14] | AUClast (Brain [15]) | AUClast (Brain [16]) | bioavailability [19] | bioavailability [20] | Tmax [22] | Vd [25] | Vd [26] | clearance [27] | clearance [28] | T1/2 (D-amino-acid oxidase [29]) | other results
O=C(O)c1cc2sccc2[nH]1 | > 10000 nM | 3.88 | 2.11 | > 460 µM | 100 µM (≈ 16.7 µg/mL) | > 100 µM | 47 ×10⁻⁶ cm/s | 6 ×10⁻⁶ cm/s | 648 ng/mL | 336 ng/mL | 1940 ng·h/mL | 302 ng·h/mL | 100% | 56% | 15 min | 2.1 L/kg | 0.4 L/kg | 9 mL/min/kg | 21 mL/min/kg | 10 min | IC50 (D-amino-acid oxidase [1]): 11.9 nM; IC50 (D-amino-acid oxidase [2]): 145 nM; Kd (D-amino-acid oxidase [3]): 19 nM; Kd (D-amino-acid oxidase [4]): 6 nM; Kd (D-amino-acid oxidase [5]): 33 nM; Kp [17]: 0.05; Kp [18]: 0.06; Tmax [21]: 60 min; half-life [23]: 120 min; half-life [24]: 60 min
O=c1[nH]c2cccc(Cl)c2cc1O | > 10000 nM | 7.6 | 2.57 | 31 µM (≈ 6.06 µg/mL) | 17 µM (≈ 3.33 µg/mL) | 55 µM (≈ 10.8 µg/mL) | – | – | – | 11.7 ng/mL | – | – | 1.4% | 0.65% | 15 min | 0.3 L/kg | 0.3 L/kg | 30 mL/min/kg | 44 mL/min/kg | > 120 min | microsomal CLint [30]: 308 µL/min/mg
Oc1noc2cc(Cl)ccc12 | > 10000 nM | 4.07 | 2.68 | 433 µM (≈ 73.4 µg/mL) | 100 µM (≈ 17 µg/mL) | > 100 µM | 77 ×10⁻⁶ cm/s | 75 ×10⁻⁶ cm/s | 319 ng/mL | 228 ng/mL | 340 ng·h/mL | 139 ng·h/mL | 28% | 29% | 15 min | 0.3 L/kg | 0.2 L/kg | 5 mL/min/kg | 10 mL/min/kg | 10 min | IC50 [31]: > 10000 nM; microsomal CLint [30]: 4.7 µL/min/mg; Kp [17]: 0.04; Kp [18]: 0.03; Tmax [21]: 30 min; half-life [23]: 120 min; half-life [24]: 60 min
